Measured values taken from ChEMBL document CHEMBL5653596, “A novel small molecule met inhibitor induces apoptosis in cells transformed by the oncogenic TPR-MET tyrosine kinase” (Cancer Res, 2003).
Calls of active or inactive are those of the source. The rule behind the calls is not given here.

Legend:
[1] = biological target: T1, Hepatocyte growth factor receptor (Homo sapiens, UniProt P08581); assay: Inhibition of glutathione S-transferase fused Met (unknown origin) catalytic activity infected in Sf9 cells using poly-Glu-Tyr (4:1) as substrate
[2] = biological target: Vascular endothelial growth factor receptor 2 (Homo sapiens, UniProt P35968); assay: Inhibition of glutathione S-transferase fused Flk1 (unknown origin) catalytic activity infected in Sf9 cells using poly-Glu-Tyr (4:1) as substrate
[3] = biological target: Epidermal growth factor receptor (Homo sapiens, UniProt P00533); assay: Inhibition of glutathione S-transferase fused EGFR (unknown origin) catalytic activity infected in Sf9 cells using poly-Glu-Tyr (4:1) as substrate
[4] = biological target: Platelet-derived growth factor receptor beta (Homo sapiens, UniProt P09619); assay: Inhibition of glutathione S-transferase fused PDGFbetaR (unknown origin) catalytic activity infected in Sf9 cells using poly-Glu-Tyr (4:1) as substrate
Angiopoietin-1 receptor = Angiopoietin-1 receptor (Homo sapiens, UniProt Q02763); assay: Inhibition of glutathione S-transferase fused Tie2 (unknown origin) catalytic activity infected in Sf9 cells using poly-Glu-Tyr (4:1) as substrate
[5] = biological target: Proto-oncogene tyrosine-protein kinase Src (Homo sapiens, UniProt P12931); assay: Inhibition of glutathione S-transferase fused c-Src (unknown origin) catalytic activity infected in Sf9 cells using poly-Glu-Tyr (4:1) as substrate
[6] = biological target: Cyclin-dependent kinase 2 (Homo sapiens, UniProt P24941); assay: Inhibition of glutathione S-transferase fused CDK2 (unknown origin) catalytic activity infected in Sf9 cells using poly-Glu-Tyr (4:1) as substrate
[7] = biological target: T2, Fibroblast growth factor receptor 1 (Homo sapiens, UniProt P11362); assay: Inhibition of glutathione S-transferase fused FGFR1 (unknown origin) catalytic activity infected in Sf9 cells using poly-Glu-Tyr (4:1) as substrate
Target sequence in this assay (P11362 whole entry, the tested form may be a part): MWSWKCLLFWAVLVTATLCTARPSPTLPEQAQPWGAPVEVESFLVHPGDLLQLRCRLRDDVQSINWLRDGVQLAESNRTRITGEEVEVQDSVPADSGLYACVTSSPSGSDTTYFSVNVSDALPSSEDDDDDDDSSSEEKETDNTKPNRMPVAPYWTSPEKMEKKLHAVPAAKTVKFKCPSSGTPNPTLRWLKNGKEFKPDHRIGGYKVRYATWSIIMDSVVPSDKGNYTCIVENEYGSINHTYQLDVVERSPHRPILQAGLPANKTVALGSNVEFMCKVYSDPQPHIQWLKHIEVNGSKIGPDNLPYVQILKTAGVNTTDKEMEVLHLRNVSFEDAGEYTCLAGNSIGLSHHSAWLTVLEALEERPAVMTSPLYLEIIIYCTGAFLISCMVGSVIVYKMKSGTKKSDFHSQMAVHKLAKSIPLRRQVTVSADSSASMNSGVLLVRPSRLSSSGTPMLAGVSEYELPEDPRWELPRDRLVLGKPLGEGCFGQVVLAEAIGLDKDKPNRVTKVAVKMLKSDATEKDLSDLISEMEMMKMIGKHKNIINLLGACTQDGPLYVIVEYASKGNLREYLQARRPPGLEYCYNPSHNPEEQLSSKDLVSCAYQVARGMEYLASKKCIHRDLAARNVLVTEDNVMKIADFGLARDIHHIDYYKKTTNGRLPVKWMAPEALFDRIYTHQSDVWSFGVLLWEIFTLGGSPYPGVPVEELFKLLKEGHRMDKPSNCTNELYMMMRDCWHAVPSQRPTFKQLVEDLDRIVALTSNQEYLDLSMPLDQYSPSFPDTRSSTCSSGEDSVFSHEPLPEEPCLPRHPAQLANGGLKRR

[8] = biological target: T2, Fibroblast growth factor receptor 1; assay: Inhibition of glutathione S-transferase fused FGFR1 (unknown origin) catalytic activity infected in Sf9 cells using poly-Glu-Tyr (4:1) as substrate at 0.02 uM relative to control
BaF3 [9] = assay: Inhibition of cell growth in mouse BaF3 cells transfected with TPR-MET genes by 3-(4,5-dimethylthiazol-2-yl)-2,5-diphenyltetrazolium bromide assay; type: functional, cell-based
BaF3 [10] = assay: Inhibition of cell growth in mouse BaF3 cells transfected with TPR-MET genes at 0.01 to 10 uM by 3-(4,5-dimethylthiazol-2-yl)-2,5-diphenyltetrazolium bromide assay; type: functional, cell-based; conditions: dose 0.01-10 µM
BaF3 [11] = assay: Inhibition of cell growth in mouse BaF3 cells transfected with TPR-MET genes in presence of interleukin 3 at 1 uM by 3-(4,5-dimethylthiazol-2-yl)-2,5-diphenyltetrazolium bromide assay; type: functional, cell-based
BaF3 [12] = assay: Inhibition of cell growth in mouse BaF3 cells transfected with BCR-ABL genes in presence of interleukin 3 at 1 uM measured after 18 hrs by 3-(4,5-dimethylthiazol-2-yl)-2,5-diphenyltetrazolium bromide assay; type: functional, cell-based
BaF3 [13] = assay: Inhibition of cell growth in mouse BaF3 cells transfected with BCR-ABL genes at 1 uM measured after 18 hrs by 3-(4,5-dimethylthiazol-2-yl)-2,5-diphenyltetrazolium bromide assay; type: functional, cell-based
BaF3 [14] = assay: Inhibition of cell growth in mouse BaF3 cells transfected with TEL-JAK2 genes at 1 uM measured after 18 hrs by 3-(4,5-dimethylthiazol-2-yl)-2,5-diphenyltetrazolium bromide assay; type: functional, cell-based
BaF3 [15] = assay: Inhibition of cell growth in mouse BaF3 cells transfected with TEL-ABL genes at 1 uM measured after 18 hrs by 3-(4,5-dimethylthiazol-2-yl)-2,5-diphenyltetrazolium bromide assay; type: functional, cell-based
BaF3 [16] = assay: Inhibition of cell growth in mouse BaF3 cells transfected with TEL-PDGFbetaR genes at 1 uM measured after 18 hrs by 3-(4,5-dimethylthiazol-2-yl)-2,5-diphenyltetrazolium bromide assay; type: functional, cell-based
BaF3 [17] = assay: Inhibition of cell growth in mouse BaF3 cells transfected with TPR-MET genes in presence of interleukin 3 at 1 uM measured after 3 days by 3-(4,5-dimethylthiazol-2-yl)-2,5-diphenyltetrazolium bromide assay; type: functional, cell-based; conditions: time 3.0 day
BaF3 [18] = assay: Inhibition of cell growth in mouse BaF3 cells transfected with BCR-ABL genes in presence of interleukin 3 at 1 uM measured after 3 days by 3-(4,5-dimethylthiazol-2-yl)-2,5-diphenyltetrazolium bromide assay; type: functional, cell-based; conditions: time 3.0 day
BaF3 [19] = assay: Inhibition of cell growth in mouse BaF3 cells transfected with TPR-MET genes at 1 uM measured after 3 days by 3-(4,5-dimethylthiazol-2-yl)-2,5-diphenyltetrazolium bromide assay; type: functional; conditions: BaF3, 72 h, time 3 day
BaF3 [20] = assay: Inhibition of cell growth in mouse BaF3 cells in presence of interleukin 3 at 1 uM measured after 3 days by 3-(4,5-dimethylthiazol-2-yl)-2,5-diphenyltetrazolium bromide assay; type: functional, cell-based; conditions: time 3.0 day
BaF3 [21] = assay: Inhibition of migration of mouse BaF3 cells measured after 4 hrs by spontaneous transwell migration assay; type: functional, cell-based; conditions: dose 0.2-5 µM
BaF3 [22] = assay: Inhibition of migration of mouse BaF3 cells at 1 uM measured after 4 hrs by spontaneous transwell migration assay relative to control; type: functional
BaF3 [23] = assay: Inhibition of migration of mouse BaF3 cells at 5 uM measured after 4 hrs by spontaneous transwell migration assay relative to control; type: functional
[24] = biological target: T1, Hepatocyte growth factor receptor; assay: Inhibition of HGF-dependent Met (unknown origin) phosphorylation
NCI-H69 = assay: Growth inhibition of human NCI-H69 cells in presence of HGF measured after 72 hrs by 3-(4,5 dimethylthiazol-2-yl)-2,5-diphenyltetrazolium bromide assay; type: functional, cell-based
NCI-H345 = assay: Growth inhibition of human NCI-H345 cells in presence of HGF measured after 72 hrs by 3-(4,5 dimethylthiazol-2-yl)-2,5-diphenyltetrazolium bromide assay; type: functional, cell-based
[25] = biological target: Hepatocyte growth factor receptor (Mus musculus) (UniProt P16056); assay: Inhibition of Met autophosphorylation at Tyr361/365/366 in mouse BaF3 cells at 5 uM by immunoblotting analysis; type: cell-based
[26] = biological target: Hepatocyte growth factor receptor (Mus musculus) (UniProt P16056); assay: Inhibition of Met autophosphorylation at Tyr480 in mouse BaF3 cells at 5 uM by immunoblotting analysis; type: cell-based
[27] = biological target: Hepatocyte growth factor receptor (Mus musculus) (UniProt P16056); assay: Inhibition of Met autophosphorylation at Tyr496 in mouse BaF3 cells at 5 uM by immunoblotting analysis; type: cell-based
BaF3 [28] = assay: Reduction in tyrosine phosphorylation of cellular proteins in mouse BaF3 cells transfected with TPR-MET genes by immunoblotting analysis; type: functional, cell-based; conditions: dose 0.2-5 µM
BaF3 [29] = assay: Inhibition of […] phosphorylation of AKT at […] in mouse BaF3 cells transfected with TPR-MET genes at 0.2 to 5 uM by immunoblotting analysis; type: cell-based; conditions: dose 0.2-5 µM
BaF3 [30] = assay: Inhibition of Serine phosphorylation of AKT at Ser473 in mouse BaF3 cells transfected with TPR-MET genes at 0.2 to 5 uM by immunoblotting analysis; type: cell-based; conditions: dose 0.2-5 µM
BaF3 [31] = assay: Inhibition of Serine phosphorylation of GSK3beta at Ser21/9 in mouse BaF3 cells transfected with TPR-MET genes at 0.2 to 5 uM by immunoblotting analysis; type: cell-based; conditions: dose 0.2-5 µM
BaF3 [32] = assay: Inhibition of Serine phosphorylation of FKHR at Ser256 in mouse BaF3 cells transfected with TPR-MET genes at 0.2 to 5 uM by immunoblotting analysis; type: cell-based; conditions: dose 0.2-5 µM
BaF3 [33] = assay: Induction of apoptosis in mouse BaF3 cells transfected with TPR-MET genes assessed as viable cells at 1 uM measured after 18 hrs by annexin V and propidium iodide staining based flow cytometry assay (reference value: 93.6%); type: functional; conditions: read-out: Activity
BaF3 [34] = assay: Induction of apoptosis in mouse BaF3 cells transfected with TPR-MET genes assessed as early apoptotic cells at 1 uM measured after 18 hrs by annexin V and propidium iodide staining based flow cytometry assay (reference value: 2.5%); type: functional
BaF3 [35] = assay: Induction of apoptosis in mouse BaF3 cells transfected with TPR-MET genes assessed as late apoptotic cells at 1 uM measured after 18 hrs by annexin V and propidium iodide staining based flow cytometry assay (reference value: 3.8%); type: functional
BaF3 [36] = assay: Induction of apoptosis in mouse BaF3 cells transfected with TPR-MET genes assessed as necrotic cells at 1 uM measured after 18 hrs by annexin V and propidium iodide staining based flow cytometry assay (reference value: 0.1%); type: functional
BaF3 [37] = assay: Induction of apoptosis in mouse BaF3 cells transfected with TPR-MET genes assessed as total apoptotic cells at 1 uM measured after 18 hrs by annexin V and propidium iodide staining based flow cytometry assay (reference value: 5%); type: functional
BaF3 [38] = assay: Induction of cell cycle arrest in mouse BaF3 cells transfected with TPR-MET genes assessed as cells accumulation at G1 phase at 0.2 uM by fluorescence-activated cell sorter analysis (reference value: 42.4%); type: functional
BaF3 [39] = assay: Induction of cell cycle arrest in mouse BaF3 cells transfected with TPR-MET genes assessed as cells accumulation at G1 phase at 1 uM by fluorescence-activated cell sorter analysis (reference value: 42.4%); type: functional
BaF3 [40] = assay: Induction of cell cycle arrest in mouse BaF3 cells transfected with TPR-MET genes assessed as cells accumulation at G1 phase at 5 uM by fluorescence-activated cell sorter analysis (reference value: 42.4%); type: functional
BaF3 [41] = assay: Induction of cell cycle arrest in mouse BaF3 cells transfected with TPR-MET genes assessed as cells accumulation at S phase at 0.2 uM by fluorescence-activated cell sorter analysis (reference value: 45.4%); type: functional
BaF3 [42] = assay: Induction of cell cycle arrest in mouse BaF3 cells transfected with TPR-MET genes assessed as cells accumulation at S phase at 1 uM by fluorescence-activated cell sorter analysis (reference value: 45.4%); type: functional
BaF3 [43] = assay: Induction of cell cycle arrest in mouse BaF3 cells transfected with TPR-MET genes assessed as cells accumulation at S phase at 5 uM by fluorescence-activated cell sorter analysis (reference value: 45.4%); type: functional
BaF3 [44] = assay: Induction of cell cycle arrest in mouse BaF3 cells transfected with TPR-MET genes assessed as cells accumulation at G2/M phase at 0.2 uM by fluorescence-activated cell sorter analysis (reference value: 12.2%); type: functional
BaF3 [45] = assay: Induction of cell cycle arrest in mouse BaF3 cells transfected with TPR-MET genes assessed as cells accumulation at G2/M phase at 1 uM by fluorescence-activated cell sorter analysis (reference value: 12.2%); type: functional
BaF3 [46] = assay: Induction of cell cycle arrest in mouse BaF3 cells transfected with TPR-MET genes assessed as cells accumulation at G2/M phase at 5 uM by fluorescence-activated cell sorter analysis (reference value: 12.2%); type: functional

Hepatocyte growth factor receptor (Mus musculus), sequence (P16056 whole entry): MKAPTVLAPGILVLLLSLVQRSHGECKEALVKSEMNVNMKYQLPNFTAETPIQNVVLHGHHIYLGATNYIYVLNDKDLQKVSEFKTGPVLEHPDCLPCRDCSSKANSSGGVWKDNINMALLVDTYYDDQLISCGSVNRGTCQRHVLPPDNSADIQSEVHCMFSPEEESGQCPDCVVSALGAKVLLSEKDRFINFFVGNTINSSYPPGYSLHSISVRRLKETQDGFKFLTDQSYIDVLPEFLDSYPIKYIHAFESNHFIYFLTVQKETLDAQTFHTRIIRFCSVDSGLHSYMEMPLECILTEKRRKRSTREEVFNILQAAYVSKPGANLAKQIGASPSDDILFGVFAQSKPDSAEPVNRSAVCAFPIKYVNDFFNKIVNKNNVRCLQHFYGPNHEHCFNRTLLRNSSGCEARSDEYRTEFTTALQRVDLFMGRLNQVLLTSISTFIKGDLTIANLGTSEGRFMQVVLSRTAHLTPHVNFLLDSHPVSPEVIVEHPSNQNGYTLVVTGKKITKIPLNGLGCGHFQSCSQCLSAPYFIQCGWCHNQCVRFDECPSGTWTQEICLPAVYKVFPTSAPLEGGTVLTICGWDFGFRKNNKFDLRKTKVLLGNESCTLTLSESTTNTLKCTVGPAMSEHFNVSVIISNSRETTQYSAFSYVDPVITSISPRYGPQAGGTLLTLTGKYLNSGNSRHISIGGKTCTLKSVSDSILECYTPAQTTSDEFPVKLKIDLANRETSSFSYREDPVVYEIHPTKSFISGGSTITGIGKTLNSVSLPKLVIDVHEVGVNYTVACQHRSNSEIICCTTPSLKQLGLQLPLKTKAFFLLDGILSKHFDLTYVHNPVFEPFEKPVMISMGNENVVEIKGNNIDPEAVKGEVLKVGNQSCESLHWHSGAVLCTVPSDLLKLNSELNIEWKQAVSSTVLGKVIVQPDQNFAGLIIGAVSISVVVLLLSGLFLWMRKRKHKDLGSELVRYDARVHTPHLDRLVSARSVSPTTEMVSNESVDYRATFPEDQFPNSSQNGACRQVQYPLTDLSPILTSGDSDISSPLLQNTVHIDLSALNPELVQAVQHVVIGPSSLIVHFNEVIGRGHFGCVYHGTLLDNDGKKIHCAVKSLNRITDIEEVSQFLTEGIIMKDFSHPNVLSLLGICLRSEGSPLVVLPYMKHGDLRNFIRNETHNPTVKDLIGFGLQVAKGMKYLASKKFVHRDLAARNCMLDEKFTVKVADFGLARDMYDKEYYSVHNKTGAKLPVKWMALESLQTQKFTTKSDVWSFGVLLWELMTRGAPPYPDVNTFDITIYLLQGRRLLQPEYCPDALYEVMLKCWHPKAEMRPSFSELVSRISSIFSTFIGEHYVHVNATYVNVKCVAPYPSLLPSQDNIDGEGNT
T1 sequence (P08581 whole entry, the tested form may be a part): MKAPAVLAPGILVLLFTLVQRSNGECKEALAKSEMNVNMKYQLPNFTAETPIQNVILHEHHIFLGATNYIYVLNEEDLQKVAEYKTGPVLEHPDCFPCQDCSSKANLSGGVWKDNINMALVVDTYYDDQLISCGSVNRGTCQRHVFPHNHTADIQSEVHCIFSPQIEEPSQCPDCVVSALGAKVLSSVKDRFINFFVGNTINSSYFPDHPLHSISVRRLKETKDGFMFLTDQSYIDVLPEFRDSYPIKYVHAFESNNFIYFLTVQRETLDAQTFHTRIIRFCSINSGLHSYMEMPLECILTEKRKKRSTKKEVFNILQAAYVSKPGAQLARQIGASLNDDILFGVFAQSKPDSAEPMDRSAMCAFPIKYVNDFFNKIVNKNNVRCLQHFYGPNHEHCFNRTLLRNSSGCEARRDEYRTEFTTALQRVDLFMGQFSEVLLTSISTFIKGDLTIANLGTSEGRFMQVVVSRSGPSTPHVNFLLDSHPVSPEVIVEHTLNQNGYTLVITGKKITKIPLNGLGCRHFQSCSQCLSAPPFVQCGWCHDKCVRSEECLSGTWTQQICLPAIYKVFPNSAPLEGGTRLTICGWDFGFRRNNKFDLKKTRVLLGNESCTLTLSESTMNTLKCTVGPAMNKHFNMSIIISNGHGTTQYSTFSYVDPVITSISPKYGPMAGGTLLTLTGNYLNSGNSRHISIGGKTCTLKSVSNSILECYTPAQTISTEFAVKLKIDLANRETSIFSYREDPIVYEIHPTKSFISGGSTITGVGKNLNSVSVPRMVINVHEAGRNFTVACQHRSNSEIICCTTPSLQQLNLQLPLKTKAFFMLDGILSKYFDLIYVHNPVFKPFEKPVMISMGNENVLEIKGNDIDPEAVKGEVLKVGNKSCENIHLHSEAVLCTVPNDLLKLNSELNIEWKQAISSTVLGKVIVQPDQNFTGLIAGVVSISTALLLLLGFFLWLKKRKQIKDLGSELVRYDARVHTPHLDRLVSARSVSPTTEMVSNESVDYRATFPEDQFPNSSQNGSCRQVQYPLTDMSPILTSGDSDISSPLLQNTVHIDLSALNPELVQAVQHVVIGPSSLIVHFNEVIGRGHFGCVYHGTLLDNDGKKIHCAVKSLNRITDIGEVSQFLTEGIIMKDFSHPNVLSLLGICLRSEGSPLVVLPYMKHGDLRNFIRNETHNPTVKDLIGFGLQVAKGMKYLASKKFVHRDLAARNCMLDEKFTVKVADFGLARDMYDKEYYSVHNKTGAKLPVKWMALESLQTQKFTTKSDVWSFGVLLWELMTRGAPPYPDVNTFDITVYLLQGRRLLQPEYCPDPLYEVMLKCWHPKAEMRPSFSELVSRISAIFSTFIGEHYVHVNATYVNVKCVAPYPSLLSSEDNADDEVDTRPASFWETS
Platelet-derived growth factor receptor beta, sequence (P09619 whole entry, the tested form may be a part): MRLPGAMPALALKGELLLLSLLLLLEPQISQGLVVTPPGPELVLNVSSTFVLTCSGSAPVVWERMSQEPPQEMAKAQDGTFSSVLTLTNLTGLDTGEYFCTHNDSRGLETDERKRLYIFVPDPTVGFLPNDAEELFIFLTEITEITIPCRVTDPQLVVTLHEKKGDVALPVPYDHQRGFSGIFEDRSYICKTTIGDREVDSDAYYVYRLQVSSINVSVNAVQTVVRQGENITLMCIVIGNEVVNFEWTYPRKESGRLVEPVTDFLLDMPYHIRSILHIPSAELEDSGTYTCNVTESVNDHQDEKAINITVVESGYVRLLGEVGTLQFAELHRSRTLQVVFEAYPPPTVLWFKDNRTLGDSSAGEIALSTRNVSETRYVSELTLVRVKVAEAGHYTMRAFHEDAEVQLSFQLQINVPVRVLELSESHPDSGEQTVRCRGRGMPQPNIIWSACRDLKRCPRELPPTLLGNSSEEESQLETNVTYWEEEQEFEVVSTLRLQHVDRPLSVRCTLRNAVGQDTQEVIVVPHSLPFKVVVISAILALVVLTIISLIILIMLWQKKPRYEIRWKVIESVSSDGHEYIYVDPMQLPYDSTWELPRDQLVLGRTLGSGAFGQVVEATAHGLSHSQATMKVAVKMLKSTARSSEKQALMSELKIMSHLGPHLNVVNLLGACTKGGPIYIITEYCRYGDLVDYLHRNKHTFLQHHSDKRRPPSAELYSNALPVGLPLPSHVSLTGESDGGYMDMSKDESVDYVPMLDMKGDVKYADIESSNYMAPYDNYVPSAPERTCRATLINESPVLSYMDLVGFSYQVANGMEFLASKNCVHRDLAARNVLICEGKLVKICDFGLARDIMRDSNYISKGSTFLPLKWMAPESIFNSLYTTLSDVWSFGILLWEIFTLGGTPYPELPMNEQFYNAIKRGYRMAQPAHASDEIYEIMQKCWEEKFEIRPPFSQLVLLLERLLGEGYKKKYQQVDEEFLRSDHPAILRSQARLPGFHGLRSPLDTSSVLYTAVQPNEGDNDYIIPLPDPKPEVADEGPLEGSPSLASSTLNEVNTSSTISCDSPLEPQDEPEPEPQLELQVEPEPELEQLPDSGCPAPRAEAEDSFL

Cc1[nH]c(/C=C2/C(=O)Nc3ccc(S(=O)(=O)N(C)c4cccc(Cl)c4)cc32)c(C)c1C(=O)N1CCN(C)CC1
IC50 [1]: 0.02 µM | IC50 [2]: 1.3 µM | IC50 [3]: > 100 µM | IC50 [4]: > 20 µM | IC50 (Angiopoietin-1 receptor): > 100 µM | IC50 [5]: > 10 µM | IC50 [6]: > 10 µM | IC50 [7]: 9.7 µM | inhibition [8]: 2% | IC50 (BaF3 [9]): < 3 µM | inhibition (BaF3 [10]): Dose-Dependent Effect | inhibition (BaF3 [11]): Active | inhibition (BaF3 [12]): inactive | inhibition (BaF3 [13]): inactive | inhibition (BaF3 [14]): inactive | inhibition (BaF3 [15]): inactive | inhibition (BaF3 [16]): inactive | inhibition (BaF3 [17]): inactive | inhibition (BaF3 [18]): inactive | inhibition at 1 µM (BaF3 [19]): 100% | inhibition (BaF3 [20]): inactive | inhibition (BaF3 [21]): Dose-Dependent Effect | inhibition at 1 µM (BaF3 [22]): 44.8% | inhibition at 5 µM (BaF3 [23]): 80% | IC50 [24]: 1 µM | inhibition (NCI-H69): Dose-Dependent Effect | inhibition (NCI-H345): Dose-Dependent Effect | inhibition [25]: Active | inhibition [26]: Active | inhibition [27]: Active | inhibition (BaF3 [28]): Dose-Dependent Effect | inhibition (BaF3 [29]): Active | inhibition (BaF3 [30]): Active | inhibition (BaF3 [31]): Active | inhibition (BaF3 [32]): Active | viability at 1 µM (BaF3 [33]): 70.3% | Activity (BaF3 [34]): 11.3% | Activity (BaF3 [35]): 17.2% | Activity (BaF3 [36]): 1.1% | Activity (BaF3 [37]): 24% | Activity (BaF3 [38]): 46.6% | Activity (BaF3 [39]): 40% | Activity (BaF3 [40]): 13.4% | Activity (BaF3 [41]): 40% | Activity (BaF3 [42]): 29.8% | Activity (BaF3 [43]): 21.1% | Activity (BaF3 [44]): 13.4% | Activity (BaF3 [45]): 6% | Activity (BaF3 [46]): 8.3%
